Measurements from patent publication US8686156B2, “Thiazole derivatives as pesticides” (priority 2010, dated 2014).

How the values were obtained:
[1] = logP determination by HPLC (formic acid method); format: physicochemical; details: reversed-phase HPLC column (C18), reversed-phase column (C 18), 55° C., acidic range (pH 3.4), read-out: log P(HCOOH)
Protocol: 1) Description of the Method for Determining the logP Values (Formic Acid Method) The logP values were determined in accordance with EEC Directive 79/831 Annex V.A8 by HPLC (High Performance Liquid Chromatography) using a reversed-phase column (C 18). Temperature: 55° C. Mobile phases for determination in the acidic range (pH 3.4): Mobile phase A: acetonitrile+1 ml of formic acid/litre. Mobile phase B: water+0.9 ml of formic acid/litre. Gradient: 10% mobile phase A/90% mobile phase B to 95% mobile phase A/5% mobile phase B over 4.25 min. Calibration was carried out using unbranched alkan-2-ones (having from 3 to 16 carbon atoms) with known logP values (the logP values were determined by the retention times using linear interpolation between two successive alkanones). The lambda max values were determined in the maxima of the chromatographic signals using the UV spectra from 200 nm to 400 nm.

[2] = test system: green peach aphid (Myzus persicae); assay: Myzus test, spray treatment; format: in vivo; details: application rate of 500 g/ha; spray treatment of Chinese cabbage discs; after 6 days
Protocol: Myzus Test Spray Treatment Solvent: 78 parts by weight of acetone • • 1.5 parts by weight of dimethylformamide Emulsifier: 0.5 part by weight of alkylaryl polyglycol ether To produce a suitable preparation of active compound, 1 part by weight of active compound is mixed with the stated amounts of solvent and emulsifier, and the concentrate is diluted with emulsifier-containing water to the desired concentration. Discs of Chinese cabbage (Brassica pekinensis) infected by all stages of the green peach aphid (Myzus persicae) are sprayed with an active compound preparation of the desired concentration. After 6 days, the effect in % is determined. 100% means that all of the aphids have been killed; 0% means that none of the aphids have been killed.

Structure (SMILES)	chromatographic logP [1]	effect in % (100% means that all of the aphids have been killed) [2] [%]
Clc1nc(-c2cccnc2)sc1-c1cccc(-c2ncccn2)n1 [2-{6-[4-Chloro-2-(pyridin-3-yl)-1,3-thiazol-5-yl]pyridin-2-yl}pyrimidine]	2.27	–
Clc1cnc(-c2cccc(-c3sc(-c4cccnc4)nc3Cl)n2)nc1 [5-Chloro-2-{6-[4-chloro-2-(pyridin-3-yl)-1,3-thiazol-5-yl]pyridin-2-yl}pyrimidine]	3.27	–
Fc1nc(-c2cccnc2)sc1-c1cccc(-c2ncccn2)n1 [Example 1, 2-[6-(4-Fluoro-2-pyridin-3-ylthiazol-5-yl)pyridin-2-yl]pyrimidine]	2.15	100
